According to the NIST ThermoML archive (doi:10.1021/je800046k):
± gives the expanded uncertainty stated by the source.

Experiment: xn = mol fraction of the nth substance listed
Conditions: for surface tension liquid-gas: Pendant drop shape; for mass density: 101 kPa, Liquid

Cc1cc(C)cc(C)c1 [1,3,5-trimethylbenzene] + CC(=O)OC(C)C
Conditions	mass density [kg/m3]	surface tension liquid-gas [mN/m]
298.15 K, x2 = 0	861.12 ± 0.41	28.05 ± 0.31
298.15 K, x2 = 0.0495	861.03 ± 0.41	27.68 ± 0.31
298.15 K, x2 = 0.1008	861.01 ± 0.4	27.28 ± 0.3
298.15 K, x2 = 0.1504	860.99 ± 0.4	26.92 ± 0.3
298.15 K, x2 = 0.199	861.02 ± 0.39	26.52 ± 0.29
298.15 K, x2 = 0.2514	861.07 ± 0.39	26.15 ± 0.29
298.15 K, x2 = 0.2996	861.13 ± 0.39	25.79 ± 0.29
298.15 K, x2 = 0.351	861.25 ± 0.38	25.42 ± 0.28
298.15 K, x2 = 0.4009	861.36 ± 0.38	25.07 ± 0.28
298.15 K, x2 = 0.4502	861.53 ± 0.37	24.71 ± 0.28
298.15 K, x2 = 0.5002	861.71 ± 0.37	24.37 ± 0.27
298.15 K, x2 = 0.5497	861.96 ± 0.37	24.05 ± 0.27
298.15 K, x2 = 0.6001	862.22 ± 0.36	23.72 ± 0.27
298.15 K, x2 = 0.6502	862.53 ± 0.36	23.42 ± 0.26
298.15 K, x2 = 0.7003	862.88 ± 0.36	23.14 ± 0.26
298.15 K, x2 = 0.7496	863.29 ± 0.35	22.88 ± 0.26
298.15 K, x2 = 0.7987	863.73 ± 0.35	22.65 ± 0.26
298.15 K, x2 = 0.8498	864.28 ± 0.35	22.46 ± 0.25
298.15 K, x2 = 0.8998	864.85 ± 0.35	22.28 ± 0.25
298.15 K, x2 = 0.9505	865.52 ± 0.34	22.06 ± 0.25
308.15 K, x2 = 0	852.94 ± 0.42	27.21 ± 0.3
308.15 K, x2 = 0.0501	852.69 ± 0.42	26.78 ± 0.3
308.15 K, x2 = 0.0993	852.53 ± 0.42	26.37 ± 0.29
308.15 K, x2 = 0.1514	852.38 ± 0.41	25.94 ± 0.29
308.15 K, x2 = 0.2	852.27 ± 0.41	25.55 ± 0.29
308.15 K, x2 = 0.2514	852.16 ± 0.4	25.16 ± 0.28
308.15 K, x2 = 0.3018	852.09 ± 0.4	24.8 ± 0.28
308.15 K, x2 = 0.353	852.03 ± 0.39	24.42 ± 0.27
308.15 K, x2 = 0.3991	852.01 ± 0.39	24.06 ± 0.27
308.15 K, x2 = 0.4503	852 ± 0.39	23.69 ± 0.27
308.15 K, x2 = 0.4993	852.03 ± 0.38	23.35 ± 0.26
308.15 K, x2 = 0.5492	852.08 ± 0.38	23.01 ± 0.26
308.15 K, x2 = 0.6	852.18 ± 0.38	22.67 ± 0.26
308.15 K, x2 = 0.65	852.3 ± 0.38	22.36 ± 0.25
308.15 K, x2 = 0.7003	852.47 ± 0.37	22.05 ± 0.25
308.15 K, x2 = 0.7499	852.68 ± 0.37	21.79 ± 0.25
308.15 K, x2 = 0.7993	852.92 ± 0.37	21.52 ± 0.25
308.15 K, x2 = 0.8488	853.23 ± 0.37	21.31 ± 0.24
308.15 K, x2 = 0.9004	853.61 ± 0.36	21.14 ± 0.24
308.15 K, x2 = 0.9506	854.03 ± 0.36	20.92 ± 0.24
313.15 K, x2 = 0	848.82 ± 0.43	26.78 ± 0.3
313.15 K, x2 = 0.0498	848.53 ± 0.43	26.33 ± 0.3
313.15 K, x2 = 0.1001	848.29 ± 0.42	25.9 ± 0.29
313.15 K, x2 = 0.1495	848.08 ± 0.42	25.45 ± 0.29
313.15 K, x2 = 0.2006	847.88 ± 0.41	25.06 ± 0.28
313.15 K, x2 = 0.25	847.71 ± 0.41	24.67 ± 0.28
313.15 K, x2 = 0.3005	847.55 ± 0.41	24.28 ± 0.27
313.15 K, x2 = 0.3497	847.43 ± 0.4	23.9 ± 0.27
313.15 K, x2 = 0.3998	847.3 ± 0.4	23.54 ± 0.27
313.15 K, x2 = 0.4508	847.22 ± 0.4	23.18 ± 0.26
313.15 K, x2 = 0.4998	847.16 ± 0.39	22.82 ± 0.26
313.15 K, x2 = 0.5496	847.13 ± 0.39	22.49 ± 0.26
313.15 K, x2 = 0.6007	847.12 ± 0.39	22.13 ± 0.25
313.15 K, x2 = 0.6504	847.16 ± 0.38	21.83 ± 0.25
313.15 K, x2 = 0.7	847.23 ± 0.38	21.5 ± 0.25
313.15 K, x2 = 0.7495	847.33 ± 0.38	21.22 ± 0.24
313.15 K, x2 = 0.7993	847.48 ± 0.38	20.96 ± 0.24
313.15 K, x2 = 0.8507	847.68 ± 0.37	20.73 ± 0.24
313.15 K, x2 = 0.9008	847.93 ± 0.37	20.52 ± 0.24
313.15 K, x2 = 0.9504	848.25 ± 0.37	20.36 ± 0.24
